In this assay the test system is LCT mRNA. The experiment in a line: Quantitative PCR of LCT mRNA expression in Caco-2 cells. The class given is cell-based, human. As for the experimental part: Caco-2 (colonic adenocarcinoma) cells were grown in Dulbecco's Modified Eagle's Medium (DMEM, Invitrogen, Life Technologies, Cergy-Pontoise, France) supplemented with 20% foetal calf serum (FCS, Dutscher, Brumath, France), 1% penicillin-streptomycin (5 ml/l) (Invitrogen, Life technologies) and 1% non-essential amino acids (5 ml/l) (Invitrogen, Life technologies). All cell lines were cultured as confluent monolayers at 37° C. in a controlled, 5% CO2 atmosphere.
For cell stimulations, 1×10^6 cells per well were seeded in 6-well plates. Cells were serum deprived for 16 hours prior to stimulation in order to synchronize the cells. Cells were treated with GED (Nogra Pharma Ltd, Ireland), pioglitazone (1 μM, Sigma-Aldrich) or CLA (various concentrations, Sigma-Aldrich). When necessary, the DMSO vehicle (Sigma-Aldrich) was used as control. After 24 hours of stimulation, cells were washed three times with sterile PBS before RNA extraction. Cell stimulations were performed in 4 replicates for microarray analysis and in 3, 4 or 6 replicates for other stimulations.
Cells were lysed with lysis buffer (RA1, Macherey-Nagel) containing 1% β-mercaptoethanol. Total RNA was extracted with a Nucleospin RNA kit (Macherey-Nagel, Hoerdt, France). After RNAse inactivation, total RNA was cleaned of genomic DNA traces by DNAse treatment and eluted in RNAse-free, DEPC-water. The purity of the RNA was evaluated by UV spectroscopy on a Nanodrop system (Nyxor Biotech, Paris, France) from 220 to 350 nm. Before microarray experiments, RNAs were also profiled on an Agilent 2100 bioanalyzer. One μg of total RNA with a minimum concentration of 50 ng/μl was used in the microarray and qRT-PCR analysis.
Expression of genes of interest was quantified by quantitative PCR (qPCR) of corresponding reverse transcribed mRNA. One μg of total RNA was reverse-transcribed into cDNA using the High Capacity cDNA Archive kit (Applied Biosystems). Amplification was performed using an ABI PRISM 7000 sequence detection system (Applied Biosystem) using Power SYBR® Green PCR master Mix (Applied Biosystem). Primer pairs for each human transcript were chosen with qPrimer depot software (at primerdepot.nci.nih.gov.). Quantification of qPCR signals was performed using ΔCt relative quantification method using GAPDH as a reference gene for human and rat samples and β-Actin for mouse samples. Values were represented in terms of relative quantity of mRNA level variation or fold increase compared to control conditions.

The structures appear in SMILES notation. Entries after “also recorded” stand apart in the source; their conditions may differ.

The source of these data is US20190046490A1, “METHODS OF TREATING LACTOSE INTOLERANCE” (Nogra Pharma Limited, priority 2016, published 2019).

In the case of `COC(Cc1ccc(N)cc1)C(=O)O` (centres unmarked) [GED, 3-(4′-aminophenyl)2-methoxypropionic acid], the “LCT mRNA gene expression relative to unstimulated cells, dose-response” value (0.1 mM, 1 mM, and 30 mM) is reported as “increased”. Besides, the “LCT mRNA expression relative to control (qPCR)” value (30 mM, 24 hours, normalized to GAPDH) is “Significant increases; also recorded: induction”.
